Test results as given in patent publication US9012482B2, “Drug containing benzophenone derivative or its salt” (Toyama Chemical Co., Ltd., priority 2007, dated 2015).

Experiments:
Assay type in all cases: in vivo, mouse (DBA/1 J)
RANKL mRNA = RANKL mRNA expression in hind paws of mice with type II collagen-induced arthritis (real-time PCR)
Experimental: Male DBA/1 J mice at 8-week old (Charles River Laboratories Japan, Inc.) were used. Bovine type II collagen (KOKEN CO., LTD.) dissolved at 2 mg/mL in 0.1 mol/L acetic acid was mixed and emulsified with an equal volume of Freund's complete adjuvant (Difco Laboratories, Inc.), and then 0.2 mL of the emulsion was intradermally injected at the tail head of each mouse. The same treatment was carried out 21 days after the first immunization so that type II collagen-induced arthritis was induced in mice. T-5224 was dissolved in the 2-fold molar amount of sodium hydroxide solution, and then water and polyvinylpyrrolidone (PVP) at 3-fold weight of T-5224 were added to yield 3 mg/mL of T-5224-dosing solution. T-5224 at 30 mg/kg was orally administered once daily from 21 to 34 days after the first immunization. PVP solution was administered to the mice in Control group.
On the next day of final administration, the hind paws were collected. After the excision of claws and skin, they were immersed in RNA-stabilizing agent (RNAlater, Ambion, Inc.) and kept in a refrigerator overnight. Then RNA-stabilizing agent was wiped up, and the hind paws were cryopreserved and crushed by pressing under cooling with the liquid nitrogen. […]
(§1) RT product (100 ng, equivalent amount to RNA) was mixed with 25 μL of quantitative PCR reagent (qPCR Mastermix, Eurogentec S.A.), 2.5 μL of probe/primer solution (TaqMan gene expression assays tumor necrosis factor (ligand) superfamily member 11 Mus musculus, Applied Biosystems) and RNase-free water (Takara Inc.) in total volume of 50 μL, and then PCR reaction (hold at 50° C. for 2 min, hold at 95° C. for 10 min, 40 cycles at 95° C. for 15 sec and at 60° C. for 1 min) was carried out using real-time PCR system (ABI PRISM 7700 sequence detection system, Applied Biosystems) to measure RANKL mRNA. […] The levels of RANKL mRNA and OPG mRNA were expressed as the normalized ratio to Hprt1 mRNA amount.

OPG mRNA = OPG mRNA expression in hind paws of mice with type II collagen-induced arthritis (real-time PCR); settings: 30 mg/kg orally once daily
Experimental: Male DBA/1 J mice at 8-week old (Charles River Laboratories Japan, Inc.) were used. Bovine type II collagen (KOKEN CO., LTD.) dissolved at 2 mg/mL in 0.1 mol/L acetic acid was mixed and emulsified with an equal volume of Freund's complete adjuvant (Difco Laboratories, Inc.), and then 0.2 mL of the emulsion was intradermally injected at the tail head of each mouse. The same treatment was carried out 21 days after the first immunization so that type II collagen-induced arthritis was induced in mice. […]
as §1

[1] = test system: femora of mice with type II collagen-induced arthritis; assay: Osteoporosis in femur of mice with type II collagen-induced arthritis: bone density as CT value (μCT)
Experimental: The induction of mouse type II collagen-induced arthritis and the preparation of T-5224-dosing solution (1 mg/mL) were carried out by the same procedure in Example 1. T-5224 at 10 mg/kg was orally administered once daily from 21 to 49 days after the first immunization. PVP solution was administered to the mice in Control group.
The femora isolated on the next day of final administration were fixed with formalin, and then scanned using μCT scanner system (MCT-100CB, Hitachi, Ltd.) (X-ray tube voltage: 90.0 kV, X-ray tube current: 100 iris: 3630, magnification: ×5, resolution: 30 μm). Bone density was evaluated as CT value using 3D CT image (“img” format) assembled by μCT scanner system and bone morphometry software (TRI-3D/BON, Ratoc System Engineering Co., Ltd.) according to the manufacturer's protocol. The evaluation site was set on a metaphyseal slice with 0.35 mm thickness at a point 3% of the length of the femur from the distal growth plate, according to the report of Jochems C. et al. [Arthritis Research and Therapy, 2005, Vol. 7, page R837-R843].

**Q.** How did the “inhibition of the increase of RANKL mRNA level” value (RANKL mRNA; 30 mg/kg orally once daily, days 21 to 34, hind paws) turn out when `O=C(O)CCc1cc(C(=O)c2ccc(OC3CCCC3)cc2O)ccc1OCc1ccc2c(O)noc2c1` [T-5224] was run?
**A.** 84%

**Q.** What about the “regulatory effect on expression of RANKL/OPG (in words)” value (RANKL mRNA; hind paws of mice with type II collagen-induced arthritis, 30 mg/kg orally) of the same molecule?
**A.** controlling the expression of RANKL/OPG to normal level

**Q.** What about the “RANKL mRNA level (normalized ratio to Hprt1 mRNA amount)” value (RANKL mRNA; hind paws, collagen-induced arthritis mice, 30 mg/kg orally once daily, days 21 to 34 after first immunization, Normal 0.096, Control 0.927) of the same molecule?
**A.** 0.224

**Q.** And the “inhibition of the decrease of OPG mRNA level” value (OPG mRNA; days 21 to 34)?
**A.** 68%

**Q.** And the “OPG mRNA level (normalized ratio to Hprt1 mRNA amount)” value (OPG mRNA; collagen-induced arthritis mice, days 21 to 34 after first immunization, Normal 0.375, Control 0.156)?
**A.** 0.306

**Q.** And the “inhibition of the reduction of CT value” ([1]; 10 mg/kg orally once daily, days 21 to 49, femur)?
**A.** 49%

**Q.** And the “CT Value (bone density)” value ([1]; femur metaphyseal slice, 10 mg/kg orally once daily, days 21 to 49 after first immunization, Normal 761, Control 657)?
**A.** 708

**Q.** And the “effect on development of osteoporosis in femora (in words)” value ([1]; non-arthritic region of mice with type II collagen-induced arthritis, 10 mg/kg orally)?
**A.** inhibited the development of osteoporosis in femora
